We go through ten molecules from US20250163057A1, “DCN-1 MODULATING COMPOUNDS AND METHODS OF USE THEREOF” (Cellarity, Inc., priority 2023, published 2025).

Where two headings read alike, the source gives them in different places. Where only a bound is given, the exact number is not on record here.

One series concerns fetal hemoglobin protein. In words: HbF HPLC Cell Culture Assay. The class given is cell-based. The following applies: for EC50: 336 h, HbF induction, Day 14 of culture. The procedure:
A Cell Culture Assay was performed to evaluate the ability of compounds to induce fetal hemoglobin in a cell culture. The amount fetal hemoglobin protein induced was measured by HPLC.
Cell culture began on Day −4 (thaw day). Thaw buffer was prepared by sterile filtering 6 mL of Human Serum Albumin and 144 mL of PBS to make sterile 1% I/PBS. Cells were removed from liquid nitrogen storage and mostly thawed in a 37° C. water bath. Once the ice in the cryovials was melted, cells were transferred quickly into a 50 mL conical tube. Cryovial was rinsed once with thaw buffer and buffer was transferred over to the conical tube as well. Next, doubling volumes of thaw buffer was added to the conical and gently swirled for ˜30 seconds to one minute (for example: 2 mL was added and swirled, then 4 mL, then 8 mL, and so on) until the volume in the conical is 32 mL. Cells and buffer were centrifuged at 300G for 8 minutes, and the supernatant was aspirated. Another 32 mL of thaw buffer was added slowly, swirling the tube. The tube was again centrifuged at 300G for 8 minutes and the supernatant was aspirated. Cells were counted by resuspending in 1 mL of expansion media and counting with AOPI to determine the concentration of cells/mL.
On day 2, Passage & Treatment Day, each cell culture well was counted. Next fresh CD34 Expansion Media was made which contained StemSpan SFEM, CC100 and TPO all from StemCell technologies. Appropriate volume of cells was collected, centrifuged at 300 g and resuspended in fresh media. Cells were plated in treatment format at a density of 200,000 cells/ml, 25,000 cells/well. Finally, they were treated with test compounds as well as positive and negative controls.
On Days 0, 3 & 5 the same process was carried out. First, each cell culture well was counted. Next Phase 1 Erythroid Differentiation Media was freshly made, which contained StemSpan SFEM, 2.5 U/ml EPO, 0.5 mg/ml Holo-TF, 1× Glutamax, 5 μl/ml chemically defined lipid mixture, 10 ng/ml insulin, 50 ng/ml SCF, 10 ng/ml IL-3. Appropriate volume of cells was collected, centrifuged at 300 g and resuspended in fresh media. Cells should now be in fresh wells at a density of 100,000 cells/ml. 60,000 cells, 60,000 cells and 100,000 cells for days 0, 3, 5 respectively. Finally, fresh compound was added to each well at each timepoint (Days 0, 3 & 5).
On Day 7 media and cell culture density changes. Each cell culture well was counted. Next, Phase 2 Erythroid Differentiation Media was freshly made, which contains StemSpan SFEM, 2.5 U/ml EPO, 0.5 mg/ml Holo-TF, 1× Glutamax, 5 μl/ml chemically defined lipid mixture, 10 ng/ml insulin, 50 ng/ml SCF. Appropriate volume of cells was collected, centrifuged at 300 g and resuspended in fresh media. Cells were plated in fresh wells at a density of 500,000 cells/ml, 300,000 cells/well. Finally, fresh compound was added to each well at Day 7 timepoint.
On Day 10 media formulation is once again changed. Each cell culture well was counted. Fresh Phase 3 Erythroid Differentiation Media was made which contains StemSpan SFEM, 2.5 U/ml EPO, 0.5 mg/ml Holo-TF, 1× Glutamax, 5 μl/ml chemically defined lipid mixture, 10 ng/ml insulin. Appropriate volume of cells was collected, centrifuged at 300 g and resuspended in fresh media. Cells were plated in fresh wells at a density of 500,000 cells/ml, 500,000 cells/well. Finally, fresh compound was added to each well at Day 10 timepoint.
On Day 12 the cell density is once again changed. Each cell culture well was counted. Fresh Phase 3 Erythroid Differentiation Media was made. Appropriate volume of cells was collected, centrifuged at 300 g and resuspended in fresh media. Cells were plated in fresh wells at a density of 1,000,000 cells/ml, 1,000,000 cells/well. Finally fresh compound was added to each well.
Day 14 (18th day of experiment) refers to the terminal day of culture. Each cell culture well was counted. Next between 150K and 650K cells were placed in a uniquely labeled 1.5 ml standard tube. […]

The test system of series [1] is Cullin-3 (CUL3) neddylation. In words: AlphaLISA assay for Cullin-3 (CUL3) neddylation in TF 1 cells. It is filed as cell-based. The following applies: Homo sapiens, TF-1, 3 h, 3 hours treatment. An outline of the steps: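 Neddylated CUL3 was quantified by AlphaLISA in lysates of TF 1 cells exposed for 3 h to test compound in IMDM without supplements. Percent inhibition set between vehicle and 1 μM DI-1548 positive control; IC50 derived by Hill-equation fitting of dose-response curves.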
In general terms: Bead proximity is the source of the signal in Alpha formats.

The target in series [2] is T1, DCN1 (DCUND1) protein PONY domain (Homo sapiens (Human), UniProt Q96GG9). In words: TR-FRET assay, DCN1 binding with FAM-labeled probe. An outline of the steps: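 Tb-DCN1 PONY domain (E. coli, biotin/streptavidin-Tb); FAM-labelled non-covalent inhibitor probe; TritonX buffer, 200 mM NaCl; 5 nM DCN1 + 20 nM probe or 0.31 nM DCN1 + 900 nM total probe; 0.1% DMSO; TR-FRET read 1, 5, 24 hrs.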
T1 sequence (Q96GG9 60-248): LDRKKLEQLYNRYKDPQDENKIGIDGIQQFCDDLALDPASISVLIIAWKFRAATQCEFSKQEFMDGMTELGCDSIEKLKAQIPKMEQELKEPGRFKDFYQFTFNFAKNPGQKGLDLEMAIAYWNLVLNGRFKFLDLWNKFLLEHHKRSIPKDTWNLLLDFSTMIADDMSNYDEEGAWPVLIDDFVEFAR
Background: In TR-FRET formats the signal depends on donor and acceptor labels being close together.

A further series has as its target DCN1 protein (Homo sapiens (Human), UniProt Q96GG9). In words: Intact Protein MS Analysis with the RapidFire-TOF System (covalent adduct formation). Particulars: MS Emax; 400 nM DCN1, 3 hours at room temperature. The class given is binding. An outline of the steps:
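Tag-cleaved human DCN1 (400 nM) expressed in E. coli, in 25 mM Tris-HCl, 200 mM NaCl, 1 mM DTT, was incubated with 11 compound concentrations for 3 h at room temperature and quenched with 0.2% formic acid. Intact-protein Q-TOF MS with deconvolution detected the compound adduct mass.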

Series [3] concerns the target T1, DCN1 (DCUND1) protein PONY domain. In words: Off-rate measurement of reversible covalent molecules (jump dilution TR-FRET with Cy5 probe). The class given is binding. The following applies: for Category: binding mode category from off-rate assay; for residence time: inverse of rate constant K; for residence time / half-life: jump dilution TR-FRET; for koff: jump dilution, Cy5 covalent probe 150 nM, TR-FRET; for half-life: ln(2)/K. An excerpt: A typical covalent compound is assumed to stay bound to a protein for at least the life of that protein in the cell. In reality, there is a range of how long a covalent compounds remains bound before a reverse reaction takes place. Thus, some covalent bonds can be labeled as reversible as their reverse reaction takes place in a measurable amount of time under physiological conditions. The assay capitalizes on the range of covalent binders by using a high affinity covalent binder as a probe to displace the more reversible binders in an adaptation of the jump dilution method.
In this version of the jump dilution method, the increase in covalent probe binding over time was measured through a TR-FRET reaction between the covalent probe and the biotinylated target protein.
The recombinant form of the DCN1 (DCUND1) protein PONY domain was produced using an E. coli expression system at Viva Biotech (China). The DCN1 protein was biotinylated (EZ sulfo-NHS-LC-biotin; Thermofisher) for labeling with streptavidin terbium (Tb) cryptate in the reaction. This biotinylated protein was used in two forms of the TR-FRET assay as described below.
The off-rate measurement is executed in two steps based on the jump dilution method. […] The greatest dilution allowed within the constraints of the assay was chosen. These factors allow a competitive advantage for the covalent probe to replace the test compound when that compound releases from the target protein. The actual measure is the rate of increased TR-FRET signal as the covalent probe replaces the test compound over time. […] The resulting time dependent curve of the TR-FRET signal is fit to the following equation:
Y=Y0+(Plateau−Y0)*(1−exp(−K*x))
K is the rate constant (1/unit of time). The residence time is defined as the inverse of K, the rate constant. The half-life is calculated as ln(2)/K.

Setting [4] is: 24 hr after treatment with compound, read-out: TR FRET IC50 24 hr.
Setting [5] is: TR FRET IC50 1 hr (nM), 1 hr after treatment with compound.
Setting [6] is: read-out: TR FRET IC50 1 hr, 1 hr after treatment with compound.

As a reminder, the EC50 is the midpoint of the concentration-response curve. The term IC50 denotes the concentration needed to halve the response being measured. As a reminder, the koff is a measure of how fast the partners let go of each other. Low readings indicate a long-lived complex, high ones a short-lived complex. Broadly, the half-life is how long it takes for the measured level to halve.

Chain of DCN1 protein (Q96GG9 whole entry): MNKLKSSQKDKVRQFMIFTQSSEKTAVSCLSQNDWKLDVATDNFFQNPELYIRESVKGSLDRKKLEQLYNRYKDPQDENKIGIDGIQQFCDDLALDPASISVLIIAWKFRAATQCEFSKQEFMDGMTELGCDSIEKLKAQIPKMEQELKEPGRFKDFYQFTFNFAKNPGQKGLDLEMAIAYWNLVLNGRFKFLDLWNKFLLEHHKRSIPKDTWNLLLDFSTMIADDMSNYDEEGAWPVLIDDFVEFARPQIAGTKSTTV

Turning to `CCN1C(=O)[C@@H](NC(=O)c2cccc(C(F)(F)F)c2)[C@@H](c2ccc(F)cc2)c2c(C(=O)N3CCNC[C@@H]3C#N)nn(-c3ccccc3)c21` [Compound I-281], the EC50 with fetal hemoglobin protein is at most 50 nM. The “Hemoglobin HPLC Ymax obs (%)” value in the series on fetal hemoglobin protein (relative to a control compound) is “++ (Hemoglobin HPLC Ymax greater than 65.0 and less than or equal to 100.0)”.
In the series with fetal hemoglobin protein, `CCN1C(=O)[C@@H](NC(=O)c2cccc(C(F)(F)F)c2)[C@@H](c2ccc(F)cc2)c2c(C(=O)N3CCC[C@H]3C#N)nn(-c3ccccc3)c21` (racemic) [Compound I-34] returned an EC50 of over 200 nM. In addition, the 50% inhibitory concentration (IC50) in series [1] was at most 100 nM; in series [2] (setting [4]), at most 200 nM; in series [2] (setting [5]), at most 200 nM.
Turning to `CCN1C(=O)[C@@H](NC(=O)c2cccc(C(F)(F)F)c2)[C@@H](C2CC2)c2c(C(=O)N3CCC[C@H]3C#N)nn(C3CCOCC3)c21` [Compound I-348], on DCN1 protein, the “% Adduct Formation” value is “++ (MS Emax % adduct formation greater than 30.0 and less than or equal to 80.0)”. Further, the IC50 in series [1] is at most 100 nM; in series [2] (setting [4]), at most 200 nM; in series [2] (setting [5]), 200 to 1000 nM. Moreover, the Category entry in series [3] is on record as “slow reversible”.
In turn, `CCN1C(=O)[C@@H](NC(=O)c2cccc(C(F)(F)F)c2)[C@@H](c2ccc(F)cc2)c2c(C(=O)N3CCS(=O)(=O)C[C@H]3C#N)nn(C3CCOCC3)c21` (mixture of isomers) [Compound I-436] displayed an IC50 in series [1] of at most 100 nM. The IC50 in series [2] (setting [4]) is at most 200 nM. Also, in series [2] (setting [6]), the IC50 was at most 200 nM. Also, in series [3], the Category entry was “reversible covalent”, the residence time was determined as 76.7 min, the koff was 0.000238 s⁻¹ and the half-life is 0.8857 h.
Turning to `CCN1C(=O)[C@@H](NC(=O)c2cccc(C(F)(F)F)c2)[C@@H](C2CC2)c2c(C(=O)N3CCN(C)C[C@H]3C#N)nn(C3CCOCC3)c21` (single isomer, unassigned) [Compound I-430], the IC50 in series [1] is at most 100 nM; in series [2] (setting [4]), at most 200 nM; in series [2] (setting [5]) it was 200 to 1000 nM. Besides, the Category result in series [3] is on record as “slow reversible”.
`CCN1C(=O)[C@@H](NC(=O)c2cccc(C(F)(F)F)c2)[C@@H](c2ccc(F)cc2)c2c(C(=O)N(C)[C@@H](C#N)CCN(C)C)nn(-c3ccccc3)c21` (single isomer, unassigned) [Compound I-304, (4S,5S)—N-[(1R*)-1-cyano-3-(dimethylamino)propyl]-7-ethyl-4-(4-fluorophenyl)-N-methyl-6-oxo-1-phenyl-5-[3-(trifluoromethyl)benzamido]-4H,5H-pyrazolo[3,4-b]pyridine-3-carboxamide] showed an EC50 in the series with fetal hemoglobin protein of at most 50 nM. Further, the IC50 in series [1] was at most 100 nM.
With `CCN1C(=O)[C@@H](NC(=O)c2cccc(C(F)(F)F)c2)[C@@H](C2CC2)c2c(C(=O)N3CCOC[C@H]3C#N)nn(C3CCOCC3)c21` [Compound I-381], the “% Adduct Formation” value at DCN1 protein was “+++ (MS Emax % adduct formation greater than 80.0 and less than or equal to 100.0)”. The IC50 in series [2] (setting [4]) is at most 200 nM. In addition, the IC50 in series [2] (setting [6]) was at most 200 nM. In series [3], the Category result is recorded as “reversible covalent”, the residence time came to 297 min, the koff was 5.62e-05 s⁻¹ and the half-life turned out to be 3.427 h.
`CCN1C(=O)[C@@H](NC(=O)c2cccc(C(F)(F)F)c2)[C@@H](c2ccc(F)cc2)c2c(C(=O)N3CC[C@H]3C#N)nn(C3CCOCC3)c21` [Compound I-384]: the “% Adduct Formation” value on DCN1 protein was “+ (MS Emax % adduct formation greater than or equal to 0.0 and less than or equal to 30.0)”. In addition, the IC50 in series [1] was at most 100 nM. In addition, the half-maximal inhibitory concentration (IC50) in series [2] (setting [4]) is at most 200 nM. Also, the IC50 in series [2] (setting [6]) was at most 200 nM. In series [3], the Category result is given as “reversible covalent”, the residence time stood at 184 min, the koff was 9.21e-05 s⁻¹ and the half-life stood at 2.122 h.
The molecule `CCN1C(=O)[C@@H](NC(=O)c2cccc(C(F)(F)F)c2)[C@@H](C2CC2)c2c(C(=O)N3CC[C@H]3C#N)nn(C3CCOCC3)c21` [Compound I-660] displayed an IC50 in series [1] of at most 100 nM. Further, the IC50 in series [2] (setting [4]) was at most 200 nM. Besides, the IC50 in series [2] (setting [6]) was at most 200 nM. Further, in series [3], the Category result is given as “reversible covalent”, the residence time stood at 266 min, the koff was 6.28e-05 s⁻¹ and the half-life was found to be 3.07 h.
In series [1], `CCN1C(=O)[C@@H](NC(=O)c2cccc(C(F)(F)F)c2)[C@@H](C2CC2)c2c(C(=O)N3CS(=O)(=O)C[C@@H]3C#N)nn(C3CCOCC3)c21` [Compound I-560] returned an IC50 of at most 100 nM. In addition, in series [2] (setting [4]), the IC50 is at most 200 nM. In series [2] (setting [6]), the IC50 is at most 200 nM. In addition, in series [3], the Category result was “fast reversible”, the residence time was 44.1 min, the koff was 0.000378 s⁻¹ and the half-life is 0.509 h.
